A short description of data set [1]: Plasma level of intravenously injected fluorescent CXCL9(74-103). Format: in vivo, mouse. As to conditions: spectrofluorometric. The text has this: Intravenously injected fluorescent CXCL9(74-103) was detected in plasma after different time intervals by spectrofluorometric analysis and quantified against murine plasma spiked with known concentrations of the fluorescent peptide.

For data set [2], the system named is CXCL8(1-77) binding to heparan sulfate (HS). Briefly: Competition with CXCL8 for binding to immobilized HS (ELISA-like). As to conditions: CXCL8(1-77) 0-300 nM, n ≥ 4, Figure 3B. The arrangement: species or system human. On the procedure: (§1) The ability of the COOH-terminal peptides of CXCL9 and CXCL4 to compete for GAG binding with the inflammatory chemokines CXCL8 and CXCL1 was evaluated on heparin-binding plates [BD Biosciences or produced by Jason Whittle (School of Engineering/Future Industries Institute, University of South Australia, Australia)] ([42], [47]). In brief, GAGs (heparin, HS, and CS; Iduron; 25 µg/ml) were coated overnight at room temperature. Dilutions of COOH-terminal CXCL9 or CXCL4 peptide combined with recombinant human CXCL8(1-77) or recombinant murine CXCL1(1-72) (Peprotech, Rocky Hill, NJ, USA) were added in duplicate and incubated for 2 h at 37°C. Subsequently, bound CXCL8 or CXCL1 was detected with biotinylated polyclonal rabbit anti-human CXCL8 or biotinylated polyclonal goat anti-mouse CXCL1 (Peprotech) and horse radish peroxidase-labeled streptavidin. Finally, the peroxidase activity was quantified at 450 nm.
(§2) Figure 3 CXCL9(74-93) competes with CXCL8 for binding to heparin, heparan sulfate (HS), and cellular glycosaminoglycans (GAGs). Competition between CXCL8 and COOH-terminal CXCL9 or CXCL4 peptides for binding to immobilized heparin (A) or HS (B) and to Chinese hamster ovary (CHO) cells (C) was performed. […] Bound CXCL8 was detected with biotinylated anti-human CXCL8 antibodies. (C) Binding of NH2-terminally biotinylated CXCL8(1-77) (300 nM) to CHO cells in the presence or absence of an excess CXCL9 peptide was detected by streptavidin-allophycocyanin and flow cytometry. The mean (± SEM) percentage inhibition of binding of CXCL8(1-77) to heparin, HS or cellular GAGs is indicated on the y-axis (n ≥ 4). Statistical comparison of the different competitors with CXCL9(74–103) was performed using the Mann–Whitney U-test (*p < 0.05).
In general terms: ELISA stands for enzyme-linked immunosorbent assay.

For data set [3], the system named is CXCL8-induced neutrophil migration. Briefly: CXCL8-induced neutrophil migration to the peritoneal cavity. Type of data set: in vivo, mouse (NMRI). As to conditions: 108 µg peptide i.p.; data not shown. On the procedure: In vivo neutrophil extravasation to the peritoneal or the knee cavity was examined, respectively, by intraperitoneal or intra-articular injection, of endotoxin-free recombinant CXCL8(1-77) (PeproTech) or vehicle (PBS) in female NMRI or C57BL/6 mice, as described previously ([42], [48]). Simultaneously, synthetic CXCL9 peptide was co-injected either intraperitoneally or injected intravenously. After 2 h (peritoneal cavity) or 3 h (knee cavity), mice were sacrificed. The peritoneal cavity was washed with saline enriched with 2% FCS and 20 U/ml heparin and total leukocyte counts were determined. For the preparation of cytospins, 10^5 cells were used and absolute number and percentage of neutrophils in the lavages were determined in duplicate independently by two researchers by differential microscopic counting. The cells present in the tibiofemoral articulation were harvested by washing the cavity with 10 µl of 3% (w/v) bovine serum albumin in PBS and diluted in 90 µl of 3% (w/v) bovine serum albumin in PBS. The number of total leukocytes was determined by counting leukocytes in a Neubauer chamber after staining with Turk’s solution. Differential counts were obtained from cytospin preparations by evaluating the percentage of each leukocyte type on a slide stained with May-Grunwald-Giemsa solution.
Figure 4 The COOH-terminal peptides of CXCL9 inhibit CXCL8-induced neutrophil migration to the peritoneal cavity. CXCL8(1-77) was injected into the peritoneal cavity of NMRI mice (n ≥ 5) simultaneously with an intraperitoneal (A) or intravenous (B,C) injection of CXCL9(74-103) or CXCL9(74–93). The number of neutrophils in the peritoneal cavity, 2 h post injection, were evaluated by differentially counting the leukocyte subtypes on Hemacolor-stained cytospins. The neutrophil counts are shown for every individual mouse, and the horizontal lines denote the median percentage. To detect statistically significant differences, the Mann–Whitney U-test was carried out (*p < 0.05; **p < 0.01; ***p < 0.005).

The test system of data set [4] is CXCL1(1-72) binding to heparan sulfate (HS). Briefly: Competition with CXCL1 for binding to immobilized HS. The arrangement: species or system murine. As to conditions: n ≥ 3; Figure 6A. On the procedure:
as §1
Competition between CXCL1 and COOH-terminal CXCL9 peptides for binding to immobilized heparan sulfate (HS) (A) and chondroitin sulfate (CS) (B) was performed. […] Bound CXCL1 was detected with biotinylated polyclonal goat anti-mouse CXCL1 antibodies. The mean (± SEM) percentage inhibition of CXCL1 binding to GAGs is indicated on the y-axis (n ≥ 3). Statistical comparison of the different competitors with CXCL9(74–103) was performed using the Mann–Whitney U-test.

In data set [5] the test system is CXCL8-induced neutrophil migration. To be noted: cited from earlier work.
Data set [6] relates to CXCL8(1-77) binding to heparin. As to the kind of experiment: Competition with CXCL8 for binding to immobilized heparin (ELISA-like). To be noted: heparin-coated plates, n ≥ 4. The arrangement: species or system human. The method, then: as §1, §2
For data set [7], the system named is cellular GAGs on CHO cells. As to conditions: binds dose-dependently to GAGs on CHO cells; cited from earlier work.
Data set [8] concerns HS expression on CHO cells. Briefly: HS expression on CHO cells after NaClO3 treatment, flow cytometry. Format: cell-based, Chinese hamster. As to conditions: 100 mM NaClO3, 24 h; anti-HS antibody; data not shown. The method, then:
Chinese hamster ovary (CHO) cells were a gift from M. Parmentier (ULB, Brussels, Belgium) and were cultured in Ham’s F-12 medium (with L-glutamine; Lonza, Belgium) supplemented with 10% fetal calf serum (FCS) and 0.8% G418 (Geneticin®; Life Technologies), as described ([44]). To inhibit sulfation of cellular GAGs, CHO cells were cultured in the presence of 100 mM sodium chlorate (NaClO3) for 24 h as previously described ([42]).
Binding of biotinylated CXCL9(74-103) and CXCL9(74-93) to CHO cells was assessed by flow cytometry as recently described ([42]). Briefly, cells were detached with phosphate-buffered saline (PBS) with 0.02% ethylenediaminetetraacetic acid (EDTA) and incubated with NH2-terminally biotinylated peptides. Subsequently, cells were incubated with streptavidin-allophycocyanin (BD Biosciences, San Jose, CA, USA) and analyzed by flow cytometry (FACSCalibur, BD Biosciences). To confirm inhibition of sulfation of cellular GAGs, part of the cells were stained with a mouse monoclonal anti-human HS antibody (Immunosource, Schilde, Belgium) and a secondary phycoerythrin-labeled goat anti-mouse antibody (BD Biosciences). Finally, cells were analyzed by flow cytometry. Analogously, binding of 100 nM biotinylated CXCL8 in the presence or absence of CXCL9(74-103) or CXCL9(74-93) was compared on CHO cells.
(A flow cytometer gives signals particle by particle.)

Here are results for four molecules from publication PMC5423902, “CXCL9-Derived Peptides Differentially Inhibit Neutrophil Migration In Vivo through Interference with Glycosaminoglycan Interactions” (Frontiers in Immunology, 2017).

Peptide text beside a SMILES is read from it. * marks the point of attachment. 5TAMRA = CN(C)c1ccc2c(c1)Oc1cc(N(C)C)ccc1C21OC(=O)c2cc(C(=O)*)ccc21 Some results are limits rather than exact numbers.

For the molecule `CC(C)C[C@H](NC(=O)[C@@H](NC(=O)[C@H](CCCCN)NC(=O)[C@H](CCCCN)NC(=O)[C@H](CCCCN)NC(=O)[C@H](CCC(N)=O)NC(=O)[C@H](Cc1c[nH]cn1)NC(=O)[C@H](CCCCN)NC(=O)[C@H](CCCCN)NC(=O)CNC(=O)[C@H](CC(N)=O)NC(=O)[C@H](CCCCN)NC(=O)[C@H](CCC(N)=O)NC(=O)[C@H](CCCCN)NC(=O)[C@H](CCCCN)NC(=O)[C@H](CCCCN)NC(=O)c1ccc2c(c1)C(=O)OC21c2ccc(N(C)C)cc2Oc2cc(N(C)C)ccc21)C(C)C)C(=O)N[C@@H](CCCCN)C(=O)N[C@H](C(=O)N[C@@H](CCCNC(=N)N)C(=O)N[C@@H](CCCCN)C(=O)N[C@@H](CO)C(=O)N[C@@H](CCC(N)=O)C(=O)N[C@@H](CCCNC(=N)N)C(=O)N[C@@H](CO)C(=O)N[C@@H](CCCNC(=N)N)C(=O)N[C@@H](CCC(N)=O)C(=O)N[C@@H](CCCCN)C(=O)N[C@@H](CCCCN)C(=O)N[C@H](C(=O)N[C@H](C(=O)O)[C@@H](C)O)[C@@H](C)O)C(C)C` [TAMRA-CXCL9(74-103)] (5TAMRA-KKKQKNGKKHQKKKVLKVRKSQRSRQKKTT-OH), the “fraction of injected amount detected in plasma” value in data set [1] (5 min after i.v. injection, assuming a blood volume of 3 ml) turned out to be 3%. Besides, the level at 5 min in data set [1] (mouse, plasma, iv, 5 min after i.v. injection, read-out: plasma concentration) amounted to 2000 ng/mL. The level at 1 h in data set [1] (mouse, plasma, iv, 1 h after i.v. injection, no circulating peptide detected, read-out: plasma concentration) is < 240 ng/mL.
For the molecule “86KKVLKVRKSQRSRQKKTT103 [CXCL9(86-103), COOH-terminal peptide of CXCL9]”, in data set [2], the “inhibition of CXCL8 binding on HS-coated plates” value is listed as “poorly competing”. For the same molecule, in data set [3], the “inhibition of CXCL8-induced neutrophil migration to peritoneal cavity” value is “did not inhibit CXCL8-induced neutrophil migration”. Moreover, in data set [4], the “competition for CXCL1 binding to HS” value is “not able to inhibit the interaction between CXCL1 and HS”. Besides, the “inhibition of chemotactic activity of CXCL8 in vivo” value in data set [5] is listed as “unable to inhibit chemotactic activity of CXCL8 in vivo”.
As for “47NGRKICLDLQAPLYKKIIKKLLES70 [CXCL4(47-70), COOH-terminal peptide of CXCL4, reference compound]”, in data set [6] (CXCL8(1-77) 0-300 nM, 2 h at 37°C, anti-CXCL8 detection, 450 nm, Figure 3A), the “molar excess over CXCL8 giving 50% reduction of CXCL8 binding to heparin” value was “more than 100 fold molar excess”. Besides, the “competition with CXCL8 for heparin binding (relative potency)” value in data set [6] (Figure 3) was “less potent competitor of CXCL8 binding than the CXCL9 peptides”. In data set [7], the “affinity for GAGs on CHO cells relative to CXCL9(74-103)” value is listed as “about fivefold lower affinity than CXCL9(74-103)”.
Take `[Na+].[O-][Cl+2]([O-])[O-]` [NaClO3, sodium chlorate]: the “reduction of HS expression on CHO cells” value in data set [8] is 71.4%.
